Results from patent publication US7368576B2, “Dipeptidyl peptidase IV inhibitors and their uses as anti-cancer agents” (Probiodrug AG, priority 2001, dated 2008).
Where “and” joins values, the source holds several entries; their conditions need not be identical. Equal values may be shown once. Entries after “also recorded” stand apart in the source; their conditions may differ. Read-outs that look alike come from different tables or passages of the source. Square brackets hold non-standard residues; d marks the D form. Peptide text beside a SMILES is read from it. pY = N[C@@H](Cc1ccc(OP(=O)(O)O)cc1)C(=O)O; Hyp = O=C(O)[C@@H]1C[C@@H](O)CN1; Tic = O=C(O)[C@@H]1Cc2ccccc2CN1; Tle = CC(C)(C)[C@H](N)C(=O)O

Tests used:
plasma DPIV activity = biological target: T1, plasma DPIV activity (Rattus norvegicus, UniProt P14740); assay: DPIV inhibiting activity after intravasal and oral administration to Wistar rats; assay type: in vivo; details: 100 mg/kg; for In vivo DPIV-inhibition at tmax, i.v. (%): intra-vasal (intra-arterial); for In vivo DPIV-inhibition at tmax, p.o. (%): oral
T1 construct: determination of plasma DPIV activity consisted of 80 μl reagent and 20 μl plasma sample; from tissue; host or cells: plasma of Wistar rats after i.v. or p.o. dosing
T1 sequence (P14740 37-767 limits assumed): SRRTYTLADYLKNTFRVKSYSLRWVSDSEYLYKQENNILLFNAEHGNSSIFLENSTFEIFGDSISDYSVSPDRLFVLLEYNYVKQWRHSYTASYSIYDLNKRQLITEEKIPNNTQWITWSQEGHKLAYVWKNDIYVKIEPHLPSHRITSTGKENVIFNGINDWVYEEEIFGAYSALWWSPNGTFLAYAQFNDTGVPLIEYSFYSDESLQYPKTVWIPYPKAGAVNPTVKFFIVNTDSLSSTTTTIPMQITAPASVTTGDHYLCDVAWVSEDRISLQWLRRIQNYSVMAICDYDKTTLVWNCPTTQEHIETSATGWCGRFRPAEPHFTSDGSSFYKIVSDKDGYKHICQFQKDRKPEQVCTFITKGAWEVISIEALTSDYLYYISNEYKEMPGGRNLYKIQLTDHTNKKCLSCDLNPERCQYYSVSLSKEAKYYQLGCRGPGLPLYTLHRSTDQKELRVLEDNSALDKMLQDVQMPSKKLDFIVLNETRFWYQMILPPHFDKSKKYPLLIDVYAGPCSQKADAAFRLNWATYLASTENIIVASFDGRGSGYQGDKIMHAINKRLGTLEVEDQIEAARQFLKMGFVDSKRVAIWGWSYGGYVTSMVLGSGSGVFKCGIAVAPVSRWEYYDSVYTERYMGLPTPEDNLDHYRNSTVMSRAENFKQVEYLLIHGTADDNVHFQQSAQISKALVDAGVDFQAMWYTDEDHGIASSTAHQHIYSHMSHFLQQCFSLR
Protocol: Male Wistar rats (Shoe: Wist(Sho)) with a body weight ranging between 250 and 350 g were purchased from Tierzucht Schönwalde (Schönwalde, Germany).
After overnight fasting, 100 μl samples of heparinised arterial blood were collected at −30, −5, and 0 min. […] In the case of oral administration, an additional volume of 1 ml saline was injected into the arterial catheter. In the case of intra-arterial administration, the catheter was immediately flushed with 30 μl saline and an additional 1 ml of saline was given orally via the feeding tube.
All blood samples were collected into ice cooled Eppendorf tubes (Eppendorf-Netheler-Hinz, Hamburg, Germany) filled with 10 μl 1M sodium citrate buffer (pH 3.0) for plasma DPIV activity measurement. Eppendorf tubes were centrifuged immediately (12000 rpm for 2 min, Hettich Zentrifuge EBA 12, Tuttlingen; Germany): The plasma fractions were stored on ice until analysis or were frozen at −20° C. until analysis. All plasma samples were labelled with the following data: • Code number • Animal Number • Date of sampling • Time of sampling Analytical Methods
The assay mixture for determination of plasma DPIV activity consisted of 80 μl reagent and 20 μl plasma sample. […] The DPIV activity was expressed in mU/ml.

[1] = biological target: T2, dipeptidyl peptidase IV from porcine kidney (Sus scrofa, UniProt P22411); assay: Ki determination, DPIV inhibition (glycylprolyl-4-nitroaniline); assay type: biochemical; details: HEPES pH7.6, 30° C.
T2 construct: dipeptidyl peptidase IV from porcine kidney; from tissue; host or cells: porcine kidney
T2 sequence (P22411 whole entry): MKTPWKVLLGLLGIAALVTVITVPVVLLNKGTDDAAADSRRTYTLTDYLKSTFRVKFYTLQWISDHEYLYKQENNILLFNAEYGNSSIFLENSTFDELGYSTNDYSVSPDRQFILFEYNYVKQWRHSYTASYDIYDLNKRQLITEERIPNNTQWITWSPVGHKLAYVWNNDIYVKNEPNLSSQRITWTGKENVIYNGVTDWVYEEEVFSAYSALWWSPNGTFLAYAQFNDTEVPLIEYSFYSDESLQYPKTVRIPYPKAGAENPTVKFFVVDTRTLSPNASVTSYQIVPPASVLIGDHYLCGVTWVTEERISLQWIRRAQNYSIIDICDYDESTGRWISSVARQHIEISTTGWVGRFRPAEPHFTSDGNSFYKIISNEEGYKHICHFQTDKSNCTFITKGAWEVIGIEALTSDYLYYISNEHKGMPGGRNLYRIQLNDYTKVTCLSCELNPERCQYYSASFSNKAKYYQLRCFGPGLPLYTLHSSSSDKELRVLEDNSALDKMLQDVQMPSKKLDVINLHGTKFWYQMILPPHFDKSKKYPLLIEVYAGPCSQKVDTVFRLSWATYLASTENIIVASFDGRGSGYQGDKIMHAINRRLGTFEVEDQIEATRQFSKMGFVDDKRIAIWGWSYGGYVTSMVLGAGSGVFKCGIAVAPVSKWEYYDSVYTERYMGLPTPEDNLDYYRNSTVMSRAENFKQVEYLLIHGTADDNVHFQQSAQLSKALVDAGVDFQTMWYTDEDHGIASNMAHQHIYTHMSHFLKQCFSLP

purified porcine DPIV = purified porcine DPIV (Sus scrofa, UniProt P22411); assay: Determination of IC50 values, DPIV (Gly-Pro-pNA); assay type: biochemical; details: Gly-Pro-pNA 0.4 mM, HEPES pH7.6, 30° C.
Sequence of purified porcine DPIV (P22411 whole entry): as above
Protocol: 100 μl inhibitor stock solution were mixed with 100 μl buffer (HEPES pH7.6) and 50 μl substrate (Gly-Pro-pNA, final concentration 0.4 mM) and preincubated at 30° C. Reaction was started by addition of 20 μl purified porcine DPIV. Formation of the product pNA was measured at 405 nm over 10 min using the HTS 7000Plus plate reader (Perkin Elmer) and slopes were calculated. The final inhibitor concentrations ranged between 1 mM and 30 nM. For calculation of IC50 GraFit 4.0.13 (Erithacus Software) was used.

[2] = biological target: T3, porcine dipeptidyl peptidase II (DP II) (Sus scrofa, UniProt A0A5G2QK18); assay: Inhibition of DPIV-like enzymes, dipeptidyl peptidase II; assay type: biochemical; details: lysylalanylaminomethylcoumarine, 30° C.; read-out: Ki against porcine dipeptidyl peptidase II
T3 construct: The enzyme used was purified from porcine kidney; from tissue; host or cells: porcine kidney
T3 sequence (A0A5G2QK18 28-502): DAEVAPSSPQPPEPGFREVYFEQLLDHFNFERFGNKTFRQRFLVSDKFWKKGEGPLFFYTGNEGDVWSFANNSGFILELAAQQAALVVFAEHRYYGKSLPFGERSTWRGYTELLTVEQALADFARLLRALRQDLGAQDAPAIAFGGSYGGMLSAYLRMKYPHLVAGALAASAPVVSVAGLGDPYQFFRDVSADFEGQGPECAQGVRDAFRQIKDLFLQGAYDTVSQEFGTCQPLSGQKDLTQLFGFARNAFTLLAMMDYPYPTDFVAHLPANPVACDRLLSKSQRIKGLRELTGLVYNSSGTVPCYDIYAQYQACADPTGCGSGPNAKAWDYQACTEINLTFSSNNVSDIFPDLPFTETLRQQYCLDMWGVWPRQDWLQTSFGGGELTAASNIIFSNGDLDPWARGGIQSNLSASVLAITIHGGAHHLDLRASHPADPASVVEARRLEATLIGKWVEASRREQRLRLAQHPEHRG
Protocol: DP II (3.4.14.2) releases N-terminal dipeptides from oligopeptides if the N-terminus is not protonated (McDonald, J. K., Ellis, S. & Reilly, T. J., 1966, J. Biol. Chem., 241, 1494-1501). Pro and Ala in Pi-position are preferred residues. The enzyme activity is described as DPIV-like activity, but DP II has an acidic pH-optimum. The enzyme used was purified from porcine kidney.
100 μl glutaminyl pyrrolidine or glutaminyl thiazolidine in an concentration range of 1*10^−4 M-5*10^−8 M were admixed with 100 μl μl buffer solution (40 mM HEPES, pH7.6, 0.015% Brij, 1 mM DTT), 50 μl lysylalanylaminomethylcoumarine solution (5 mM) and 20 μl porcine DP II (250fold diluted in buffer solution). Fluorescence measurement was performed at 30° C. and λexiatation=380 nm, λemission=465 nm for 25 min using a plate reader (HTS7000plus, Applied Biosystems, Weiterstadt, Germany).

PepT1 [3] = biological target: T4, PepT1 (Oryctolagus cuniculus, UniProt P36836); assay: Inhibition of 3H-D-Phe-Ala binding to PepT1-expressing P. pastoris cells
T4 construct: expressed in transfected cells; host or cells: Pichia pastoris cells expressing PepT1 (per the assay description)
T4 sequence (P36836 1-707): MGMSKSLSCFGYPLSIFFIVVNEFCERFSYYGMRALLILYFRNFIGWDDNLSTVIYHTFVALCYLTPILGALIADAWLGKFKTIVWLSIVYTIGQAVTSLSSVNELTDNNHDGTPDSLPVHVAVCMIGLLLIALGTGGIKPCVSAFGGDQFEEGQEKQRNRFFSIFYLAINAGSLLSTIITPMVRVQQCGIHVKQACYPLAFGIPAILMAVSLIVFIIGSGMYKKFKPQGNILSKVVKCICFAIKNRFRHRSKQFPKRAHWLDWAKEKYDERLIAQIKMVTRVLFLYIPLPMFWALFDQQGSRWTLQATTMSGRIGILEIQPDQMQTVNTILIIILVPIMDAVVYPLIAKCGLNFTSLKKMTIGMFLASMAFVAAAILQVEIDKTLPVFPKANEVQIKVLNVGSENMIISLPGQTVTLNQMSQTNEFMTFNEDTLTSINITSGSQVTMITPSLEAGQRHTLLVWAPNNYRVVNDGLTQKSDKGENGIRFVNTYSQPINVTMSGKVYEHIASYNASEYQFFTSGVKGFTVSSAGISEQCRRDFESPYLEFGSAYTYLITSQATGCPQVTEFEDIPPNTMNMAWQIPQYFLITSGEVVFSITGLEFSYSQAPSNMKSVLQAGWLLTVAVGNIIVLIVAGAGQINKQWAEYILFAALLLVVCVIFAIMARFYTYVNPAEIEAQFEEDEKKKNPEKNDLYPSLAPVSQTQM
Excerpt: (§1) Side chain-modified glutamyl thiazolidines having a structure H-Glu(X)-Thia were synthesised, with polyethylene glycol or glycine oligomers of various chain lengths being used as X (see Method A of example for description of synthesis). The binding characteristics of those derivatives and their transportability by the peptide transporter PepT1 were investigated.

PepT1 [4] = assay: Transport at PepT1-expressing oocytes of X. leavis, two-electrode voltage clamp; assay type: cell-based
Excerpt: as §1

MADB106 tumor cells = assay: In vivo cancer cell adhesion assay (CFSE labeled cells in lungs); set-up: species or system F344 rats; details: wild-type F344USA rats, single injection i.v. + i.p., 30 min after inoculation, vs. saline; fumarate
Protocol: Cell culture, injection of tumor cells, dissection of the animals and immunohistochemistry were conducted as previously described (von Hörsten et al., 2000). In brief, 1×10^6 MADB106 tumor cells derived from log phase of tumor growth were injected via the lateral tail vein and lungs removed at different time points thereafter. For in situ quantification of tumor cells at early time points after injection (30 min), cells were vital dye stained using the fluorescein derivate 5- (and -6)-carboxyfluorescein diacetate succinimidyl ester (CFSE) before injection.
Control sections were included in which one or both primary antibodies were omitted.
Vital dye (Carboxyfluorescein; CFSE) labeling of MADB106 tumor cells allows the quantification of tumor cells and NK cells in thick sections of lung tissue by stereology in situ (von Hörsten et al, 2000). In the present study we produced thin sections (8 μm) of the same lungs (n=10) and performed additional microscopic counting by image analysis of DE1 positive cells. This was done to further simplify the previously validated stereological quantification technique. Therefore, in the present study, the assessment of DE1 positive tumor cells in lung tissue from different substrains 30 min after tumor inoculation was carried out using image analysis approach. […] Each right upper lobe of the lungs was sectioned at 6 randomly chosen non-adjacent levels. From each level, three sections were evaluated.

Ki [1]	IC50 (purified porcine DPIV) [µM]	Compound	further results
		Br.CC(=O)OCC(=O)[C@@H]1CCCN1C(=O)[C@@H](NC(=O)[C@H](C)N)C(C)C [Ala-Val-Pro-acyloxy methyl ketone, H-Ala-Val-Pro-CH2O—C(O)CH3.HBr]	In vivo DPIV-inhibition at tmax, i.v. (%) (plasma DPIV activity): 89%; In vivo DPIV-inhibition at tmax, p.o. (%) (plasma DPIV activity): 86%
		Br.CC(C)[C@H](NC(=O)[C@H](C)N)C(=O)N1CCC[C@H]1C(=O)COC(=O)c1ccccc1 [Ala-Val-Pro-benzoyl-methyl ketone, H-Ala-Val-Pro-CH2O—C(O)Ph.HBr]	In vivo DPIV-inhibition at tmax, i.v. (%) (plasma DPIV activity): 97%; In vivo DPIV-inhibition at tmax, p.o. (%) (plasma DPIV activity): 76%
1.21 µM	527	NC(=O)CCC(N)C(=O)N1CCSC1 (stereo not drawn) [Gln-Thia, glutaminyl thiazolidine]	Ki [2]: 10.7 µM
12 µM		NC(=O)CC(N)C(=O)N1CCCC1 (stereo not drawn) [H-Asn-pyrrolidine]	
3.5 µM		NC(=O)CC(N)C(=O)N1CCSC1 (stereo not drawn) [H-Asn-thiazolidine]	
13 µM		NC(CC(=O)NO)C(=O)N1CCCC1 (stereo not drawn) [H-Asp(NHOH)-pyrrolidine]	
8.8 µM		NC(CC(=O)NO)C(=O)N1CCSC1 (stereo not drawn) [H-Asp(NHOH)-thiazolidine]	
2.9 µM		NC(CC(=O)O)C(=O)N1CCSC1 (stereo not drawn) [H-Asp-thiazolidine]	
2.8 µM		NC(CCC(=O)NO)C(=O)N1CCCC1 (stereo not drawn) [H-Glu(NHOH)-pyrrolidine]	
1.7 µM		NC(CCC(=O)NO)C(=O)N1CCSC1 (stereo not drawn) [H-Glu(NHOH)-thiazolidine]	EC50 (PepT1 [3]): 3180 µM; Imax, inward currents generated by the transport (PepT1 [4]): 42 ± 11 nA
0.62 µM and 0.61 µM		N[C@@H](CCC(=O)O)C(=O)N1CCSC1 [H-Glu-thiazolidine]	EC50 (PepT1 [3]): 1100 µM; Imax, inward currents generated by the transport (PepT1 [4]): 35 ± 13 nA
3.5 µM		NC(Cc1c[nH]cn1)C(=O)N1CCCC1 (stereo not drawn) [H-His-pyrrolidine]	
1.8 µM		NC(Cc1c[nH]cn1)C(=O)N1CCSC1 (stereo not drawn) [H-His-thiazolidine]	
		CCC(C)C(N)C(=O)N1CCSC1 (stereo not drawn) [H-Ile-Thia]	EC50 (PepT1 [3]): 980 µM; Imax, inward currents generated by the transport (PepT1 [4]): 25 ± 8 nA
0.27 µM		CC(C)C(N)C(=O)N1CCSC1 (stereo not drawn) [H-Val-thiazolidine]	
	6000	CC[C@H](C)[C@H](N)C(=O)N1C[C@H](O)C[C@H]1C(=O)N[C@H](C(=O)O)[C@@H](C)CC [Ile-Hyp-Ile] (H-Ile-[Hyp]-Ile-OH; N-terminus and C-terminus assumed)	
56.8 µM	293	CCC(C)C(N)C(=O)C1CCCCC1 (stereo not drawn) [Ile-cyclohexyl ketone]	
	38.2	CCC(C)C(N)C(=O)C1CCCC1 (stereo not drawn) [Ile-cyclopentyl ketone, 1-cyclopentyl-3-methyl-1-oxo-2-pentanaminium chloride]	
	1000	CC[C@H](C)[C@H](NC(=O)[C@@H]1CCCN1C(=O)[C@@H]1Cc2ccccc2CN1)C(=O)O [Tic-Pro-Ile] (H-[Tic]-Pro-Ile-OH; N-terminus and C-terminus assumed)	
0.0476 µM	0.579	CC(=O)C1CCCN1C(=O)C(N)C(C)C (stereo not drawn) [Val-Pro-methyl ketone]	
	67.5	CC(C)[C@H](N)C(=O)N1CCC[C@H]1C(=O)N[C@H](C(=O)O)C(C)(C)C [Val-Pro-t-butyl-Gly] (H-Val-Pro-[Tle]-OH; N-terminus and C-terminus assumed)	
13.1 µM	49	CC(C)C(N)C(=O)C1CCCC1 (stereo not drawn) [Val-cyclopentyl ketone]	
273 µM	273	CC(C)(C)C(N)C(=O)C1CCCCC1 (stereo not drawn) [t-butyl-Gly-cyclohexyl ketone]	
		CC(C)[C@H](N)C(=O)N1CCCC1.O=C(O)/C=C/C(=O)O [valyl pyrrolidine fumarate]	tumor cell adhesion, CFSE positive cells in lung tissue (MADB106 tumor cells): no significant effect; also recorded: significant differences vs. saline treated controls were not found
3.11 µM		H-Glu(PEG)-Thia	EC50 (PepT1 [3]; read-out: EC50, concentration inhibiting binding of 3H-D-Phe-Ala to PepT1-expressing P. pastoris cells by 50%): > 10000 µM
0.00105 µM	0.0102	Val-Pro-acyloxy methyl ketone	
0.0373 µM	0.138	Val-Pro-benzothiazol methyl ketone	
0.000536 µM	0.0179	Val-Pro-benzoyl methyl ketone	
	1000	Val-cyclohexyl ketone	

Compound	Ki [1]	IC50 (purified porcine DPIV) [µM]	further results
NC(CC(=O)O)C(=O)N1CCCC1 (stereo not drawn) [H-Asp-pyrrolidine]	0.014 µM		
N[C@@H](CCC(=O)NCC(=O)NCC(=O)NCC(=O)O)C(=O)N1CCSC1 [H-Glu(Gly3)-Thia]	0.0192 µM		EC50 (PepT1 [3]): 8540 µM
N[C@@H](CCC(=O)NCC(=O)NCC(=O)NCC(=O)NCC(=O)NCC(=O)O)C(=O)N1CCSC1 [H-Glu(Gly5)-Thia]	0.0993 µM		EC50 (PepT1 [3]): > 10000 µM
CCC(C)C(N)C(=O)N1CC1 (stereo not drawn) [H-Ile-azididine]	3.1 µM		
CC[C@H](C)[C@H](NC(=O)[C@@H]1CCCN1C(=O)[C@@H](N)Cc1ccc(OP(=O)(O)O)cc1)C(=O)O [Tyr(P)-Pro-Ile] (H-[pY]-Pro-Ile-OH; N-terminus and C-terminus assumed)		2000	In vivo DPIV-inhibition at tmax, p.o. (%) (plasma DPIV activity): no inhibition
